The target of data set [1] is T1, recombinant mouse NAPE-PLD (Mus musculus, UniProt Q8BH82).
T1 construct: hexahistidine (His6) (C); made in house; host or cells: E. coli
T1 sequence (Q8BH82 1-396): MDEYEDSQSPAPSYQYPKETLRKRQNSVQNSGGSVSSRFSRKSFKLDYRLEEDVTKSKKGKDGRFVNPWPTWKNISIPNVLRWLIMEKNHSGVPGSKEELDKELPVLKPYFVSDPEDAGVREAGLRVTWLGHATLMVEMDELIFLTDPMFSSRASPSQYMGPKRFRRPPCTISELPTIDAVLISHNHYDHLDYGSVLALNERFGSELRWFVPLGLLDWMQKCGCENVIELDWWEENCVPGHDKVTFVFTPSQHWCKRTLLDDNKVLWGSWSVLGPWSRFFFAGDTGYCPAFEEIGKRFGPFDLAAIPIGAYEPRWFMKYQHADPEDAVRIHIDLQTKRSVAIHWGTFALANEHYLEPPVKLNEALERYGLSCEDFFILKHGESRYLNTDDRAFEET
The experiment in a line: In vitro fluorescence NAPE-PLD activity assay (HTS/CRC) with recombinant mouse NAPE-PLD and PED-A1. The data set is classed as biochemical. As to conditions: for Emax (95% Cl): Table 4, maximal efficacy as fold increase in NAPE-PLD activity versus vehicle only.

The target in data set [2] is T2, NAPE-PLD activity of HepG2 cells (Homo sapiens, UniProt Q6IQ20).
T2 construct: endogenous in cells; host or cells: HepG2
Kind of data set: Cell-based NAPE-PLD activity in HepG2 cells (flame-NAPE). The following applies: for In-cell NAPE-PLD activity in HepG2 (10 μM) with PED-A1 or flame-NAPE as substrate: Table 3. The procedure: In vitro models of the hepatic steatosis of non-alcoholic fatty liver disease (NAFLD) are well-established, with the primary method being incubation of primary human hepatocytes or hepatocyte cell lines such as HepG2, HuH7, HepaRG, with oleic acid and palmitic acid for 24 to 48 h, then measuring the resulting steatosis, lipid peroxidation, apoptosis, and inflammatory gene expression. Using flame-NAPE to measure NAPE-PLD activity in the human hepatoma HepG2 cell line, the experimental data confirmed that VU534 activated NAPE-PLD in human cells (AC50 940 nM; max % bA 155%). Bithionol (10 μM) reduced HepG2 flame-NAPE hydrolysis by >67%.
NAPE-PLD activity was measured in cells as previously described, except that FluoroBrite DMEM (Gibco A1896701) was used as media. See Zarrow et al., J. Lipid Res. 63(1): 100156 (2022). For RAW264.7 assays, PED-A1 (3.6 μM final) was used as the substrate with 10 μM orlistat added to inhibit PLA1 activity, while for HepG2 cells, flame-NAPE was used (with no orlistat added).

Data set [3] has as its system HepG2 human hepatocytoma cells. The experiment in a line: Cytotoxicity (MTT) in HepG2 cells. The data set is classed as cell-based. The following applies: for % HepG2 viability (33 μM): Table 3. The procedure:
Cytotoxicity was measured using MTT as previously described except that the studies used 96-well plates with 100 μL of 0.3 mg/mL MTT solution was added after 24 h of treatment and then replaced after 3 h with 0.1 M HCl in isopropanol. See Aggarwal et al., J. Biol. Chem. 295(21): 7289-7300 (2020). Viability was expressed as percent absorbance at 560 nm relative to vehicle controls.

T2 sequence (Q6IQ20 whole entry): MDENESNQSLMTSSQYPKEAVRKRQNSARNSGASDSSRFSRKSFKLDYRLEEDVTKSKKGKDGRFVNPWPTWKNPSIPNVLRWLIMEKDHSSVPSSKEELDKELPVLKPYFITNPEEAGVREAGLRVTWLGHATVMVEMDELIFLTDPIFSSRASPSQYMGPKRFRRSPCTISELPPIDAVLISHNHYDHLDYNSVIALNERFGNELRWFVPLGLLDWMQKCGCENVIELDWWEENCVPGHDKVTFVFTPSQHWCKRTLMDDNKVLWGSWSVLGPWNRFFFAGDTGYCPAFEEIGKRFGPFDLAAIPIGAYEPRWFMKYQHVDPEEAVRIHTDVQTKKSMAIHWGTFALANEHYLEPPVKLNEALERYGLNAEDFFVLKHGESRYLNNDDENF

Turning to `Cc1cccc2sc(NC(=O)C3CCN(S(=O)(=O)c4cnn(C)c4)CC3)nc12` [VU210], the EC50 in data set [1] (Table 3, read-out: In vitro EC50) stood at 1500 nM. Besides, in data set [1] (Table 3, read-out: In vitro Emax (100% activity is baseline activity of vehicle only)), the Emax came to 239%. Besides, in data set [1], the “Emax (95% Cl)” value is 2.4 (2.3-2.6) fold. Besides, the “In-cell NAPE-PLD activity in HepG2 (10 μM) with PED-A1 or flame-NAPE as substrate” value in data set [2] was 124%. For the same molecule, the “% HepG2 viability (33 μM)” value in data set [3] was found to be 67%.
Take `O=C(Nc1nc2ccccc2s1)C1CCN(S(=O)(=O)c2ccc(F)c(Cl)c2)CC1` [VU233]: the “Emax (95% Cl)” value in data set [1] is reported as <1.2 fold. In addition, the “EC50, NAPE-PLD activity of HepG2 cells” value in data set [2] (FIG. 18B, flame-NAPE) is “not calculable”. The “In-cell NAPE-PLD activity in HepG2 (10 μM) with PED-A1 or flame-NAPE as substrate” value in data set [2] is 130%. Further, in data set [3], the “% HepG2 viability (33 μM)” value is given as 69%. The “cytotoxicity in HepG2 cells” value in data set [3] (up to / at 30 μM) is “no cytotoxicity”.

For orientation: EC50 means the midpoint of the concentration-response curve. As usually defined, the Emax is the maximal effect, on the per cent scale that the assay sets.

These data come from patent publication US20250250265A1, “BENZOTHIAZOLE-PHENYLSULFONYL-PIPERIDINE ANALOGS AS ACTIVATORS OF NACYLPHOSPHATIDYLETHANOLAMINE HYDROLYZING PHOSPHOLIPASE D” (priority 2022, published 2025).
